Test results reported in article PMC6023200, “High content, high-throughput screening for small molecule inducers of NF-κB translocation” (PLoS ONE, 2018).
Where two headings read alike, the source gives them in different places.

Assays:
[1] = tested on: NF-κB nuclear translocation in HUVECs; assay: NF-κB nuclear translocation assay (high content imaging, p65 NUC/CYT); format: cell-based, Human; conditions: for EC50: Homo sapiens, HUVEC; for NF-κB nuclear translocation in response to different inducers vs negative control (1% DMSO): HUVECs stimulated 30 min, 100 ng/mL LPS, 10 μM PMA, 10 μM prostratin, 10 μM calcimycin
Protocol: HUVEC cells were seeded at 2500 cells/well in 384-well plates in EBM^TM-2 Basal Medium plus 2% FBS overnight at 37°C in a humidified 5% CO2 incubator. Compounds (columns 3–22) and DMSO (columns 1, 2, 23 and 24) were added to cells using a JANUS Automated Liquid Handling Workstation (Perkin Elmer). […] Plates were incubated at 37°C for 30 min in a humidified 5% CO2 incubator following addition of compounds and controls.
All washing and immunofluorescence staining steps were performed using an EL406 Automated Washer Dispenser (Biotek). Briefly, cells were fixed with 4% paraformaldehyde at RT for 15 min. Cells were washed and incubated at RT for 30 min in 0.05% Triton X-100, 0.25% IgG-free BSA, 0.25% normal goat serum in Tris-buffered saline. Cells were stained with the p65 Mouse Monoclonal Primary Antibody (Santa Cruz, sc-8008) at a final concentration of 1 μg/mL in TBS, 0.05% Triton X-100,.25% IgG-free BSA and incubated overnight at 4°C. Cells were washed and stained with the Alexa Fluor 488 Goat anti-Mouse IgG (H+L) cross-adsorbed secondary antibody at a final concentration of 4 μg/mL in TBS, 0.05% TritonX-100, 0.25% IgG-free BSA for 1 hr at RT in the dark. Cells were washed and 1 μg/mL of DAPI added. Plates were sealed and imaged with an ImageXpress Micro XLS High Content Screening System (Molecular Devices) using FITC and DAPI channels at 20X magnification. Nine fields were captured for each well.
Images were analyzed using the MetaXpress software (Molecular Devices) by creating a custom analysis program in the Custom Module Editor. Briefly, DAPI was used to identify the nucleus of the cell and a nuclear mask created. A secondary mask was created by enlarging the nucleus mask to identify the whole cell. The whole cell mask was then overlaid on the nucleus mask to identify the cytoplasm. The average p65 (NF-κB) pixel intensities in both the nucleus and cytoplasm were quantified and a value assigned to each. A translocation value was calculated by determining the ratio of the average nuclei intensity to the average cytoplasmic intensity of p65 (NUC/CYT). For assay development, the Kruskal-Wallis non parametric test was used to compare the medians of the different groups after correcting for multiple comparison with Dunn’s multiple comparison test using GraphPad Prism 7.04 software. For assay validation, the mean (μ), standard deviation (SD) and coefficient of variation (CV) for nuclear translocation were calculated for the maximum (TNF-α) and minimum (DMSO) activation control wells, maximum and minimum activation plates as well as CVs for 320 test wells. The Z’ (measure of spread between maximum and minimum control signals) was calculated for each plate using the formula: Z^′=1−3(SDMax+SDMin)/|μMax−μMin|, where max is average maximum signal and min is average minimum signal. The EC50 was defined as the concentration that gave half the maximal response.

[2] = HepG2 cytotoxicity assay (CellTiter-Glo); conditions: human, HepG2 cells
Protocol: (§1) Cells were seeded in 384-well plates at 1800 cells per well and incubated in a humidified incubator at 37°C, 5% CO2. Compounds were solubilized in 100% DMSO and assayed using a 10-point three-fold serial dilution. Compounds were added 24 hours post cell seeding to a final assay concentration of 1% DMSO and highest compound concentration of 100 μM. CellTiter-Glo® reagent (Promega) was added to 384-well plates after a 72-hour incubation period. Relative luminescent units (RLU) were measured using a Synergy 4 plate reader (Biotek). Raw data were normalized using the average RLU value from negative control (1% DMSO) and expressed as % growth. Growth inhibition curves were fitted using the Levenberg–Marquardt algorithm. The IC50 was defined as the compound concentration that produced 50% of the growth inhibitory response.

HepG2 human cell line = assay: HepG2 cytotoxicity assay (CellTiter-Glo); conditions: HepG2 IC50 / HUVEC EC50
Protocol: as §1

in vitro = conditions: human
Protocol: as §1

[3] = 0.5 h, NF-κB nuclear translocation, 10-point 3-fold dose response from 100 μM, 30 min, mean ± SD of three independent experiments (* N = 2), unit inferred, μM, read-out: EC50 = Activity in HUVECs
[4] = HUVECs, representative curve of three experiments, 4-parameter fit, dose response from 100μM, unit inferred, read-out: EC50 (Fig 8 dose response curve)

What does the source list for `N#Cc1c(Cl)nc(N2CCOCC2)c(Cl)c1Cl` [IDR-0112566]?
EC50 [1, 3]: 3.8 ± 1.4 µM; EC50 [1, 4]: 2.1 µM; IC50 at 72 h [2]: 28 ± 0.7 µM; selectivity index (SI) = IC50/EC50 (HepG2 human cell line): 7.4

For `CC(=NNc1nc(Cl)c(C#N)c(Cl)c1Cl)c1ccccn1` [IDR-0112703], which EC50 [1, 3] is on record?
Its EC50 is 6.3 ± 6 µM.

What about the IC50 at 72 h [2] of the same molecule?
Its IC50 at 72 h is 13 ± 5 µM.

What about the “selectivity index (SI) = IC50/EC50” value (HepG2 human cell line) of the same molecule?
Its value is 2.1.

With `Cc1cc(C)c2c(N)c(C(=O)c3ccc(Br)cc3)sc2n1` [IDR-0112706] as the molecule, how does the EC50 [1, 3] read?
Its EC50 is 13 ± 4.5 µM.

What about the IC50 at 72 h [2] of the same molecule?
The IC50 at 72 h was 27 ± 3.5 µM.

What about the “selectivity index (SI) = IC50/EC50” value (HepG2 human cell line) of the same molecule?
The value was 2.1.

For `Nc1ccc2c(c1)Cc1cc([N+](=O)[O-])ccc1-2` [IDR-0113345], which EC50 [1, 3] is on record?
Its EC50 is 8.6 ± 8.9 µM.

What about the IC50 (in vitro) of the same molecule?
The IC50 was 54 ± 5 µM.

And the “selectivity index (SI) = IC50/EC50” value (HepG2 human cell line)?
The value was 6.3.

Which EC50 [1, 3] does the source give for `COC(=O)C1=C(C)OC(N)=C(C#N)C1c1ccc(Cl)c(Cl)c1` (centres unmarked) [IDR-0122120] here?
Its EC50 is 6.6 ± 8.1 µM.

And the IC50 at 72 h [2]?
Its IC50 at 72 h is 40 ± 5 µM.

And the “selectivity index (SI) = IC50/EC50” value (HepG2 human cell line)?
Its value is 6.1.

What does the source list for `O=c1oc2ccccc2c2nn(Cc3ccccc3)nc12` [IDR-0131600]?
EC50 [1, 3]: 17 ± 3.7 µM; IC50 at 72 h [2]: 32 ± 0.7 µM; selectivity index (SI) = IC50/EC50 (HepG2 human cell line): 1.9

Which EC50 [1, 3] does the source give for `O=C1NC(=S)SC1=Cc1ccc(O)cc1O` [IDR-0133275] here?
Its EC50 is 18 ± 1.1 µM.

What about the IC50 at 72 h [2] of the same molecule?
Its IC50 at 72 h is over 100 µM.

What about the “selectivity index (SI) = IC50/EC50” value (HepG2 human cell line) of the same molecule?
Its value is over 5.5.

What does the source list for `Cc1cc(OCCCNCCO)cc(C)c1Cl` [IDR-0137368]?
EC50 [1, 3]: 17 ± 14 µM; IC50 at 72 h [2]: 19 ± 4.9 µM; selectivity index (SI) = IC50/EC50 (HepG2 human cell line): 1.1

For `CCCCNCCCCOc1ccc2ccccc2c1` [IDR-0137875], which EC50 [1, 3] is on record?
Its EC50 is 15 ± 3 µM.

What about the IC50 at 72 h [2] of the same molecule?
The IC50 at 72 h was 16 ± 0.71 µM.

What about the “selectivity index (SI) = IC50/EC50” value (HepG2 human cell line) of the same molecule?
The value was 1.1.

With `Oc1ccccc1/N=C/c1c(O)c(Br)cc2oc3c(c12)CCCC3` [IDR-0139144] as the molecule, how does the EC50 [1, 3] read?
The EC50 was 12 ± 10 µM.

What about the IC50 at 72 h [2] of the same molecule?
Its IC50 at 72 h is 18 ± 4.2 µM.

What about the “selectivity index (SI) = IC50/EC50” value (HepG2 human cell line) of the same molecule?
The value was 1.5.

For `O=[N+]([O-])c1ccc(-c2nc(Cl)oc2-c2ccc([N+](=O)[O-])cc2)cc1` [IDR-0515158], which EC50 ([1]; 0.5 h, read-out: EC50 = Activity in HUVECs) is on record?
The EC50 was 2.6 ± 0.53 µM.

And the EC50 ([1]; read-out: EC50 (Fig 8 dose response curve))?
Its EC50 is 2.2 µM.

And the IC50 at 72 h [2]?
The IC50 at 72 h was 86 ± 17 µM.

What about the “selectivity index (SI) = IC50/EC50” value (HepG2 human cell line) of the same molecule?
Its value is 33.

For `Cc1nn(-c2ccccc2)c2c1C(c1ccc(Cl)c(Cl)c1)C(C#N)=C(N)O2` (centres unmarked) [IDR-0516961], which EC50 [1, 3] is on record?
Its EC50 is 25 ± 17 µM.

And the IC50 at 72 h [2]?
Its IC50 at 72 h is 46 ± 18 µM.

What about the “selectivity index (SI) = IC50/EC50” value (HepG2 human cell line) of the same molecule?
The value was 1.8.

For `CCOC(=O)C(Cc1ccccc1)NC(=O)c1ccccc1` (centres unmarked) [IDR-0517069], which EC50 [1, 3] is on record?
Its EC50 is 10 ± 1.6 µM.

And the EC50 [1, 4]?
The EC50 was 8.1 µM.

And the IC50 at 72 h [2]?
Its IC50 at 72 h is over 100 µM.

And the “selectivity index (SI) = IC50/EC50” value (HepG2 human cell line)?
Its value is over 10.

Which results are given for `O=C1C(=Cc2ccc(-c3ccc(Cl)cc3)o2)SC(=S)N1Cc1ccco1` [IDR-0518296]?
EC50 [1, 3]: 2.4 ± 1.4 µM; IC50 at 72 h [2]: 17 ± 12 µM; selectivity index (SI) = IC50/EC50 (HepG2 human cell line): 7.1

With `O=C(/C=C1\C=CS(=O)(=O)C1)c1ccccc1` [IDR-0520796] as the molecule, how does the EC50 [1, 3] read?
The EC50 was 5 ± 5.6 µM.

And the IC50 at 72 h [2]?
Its IC50 at 72 h is 6.6 ± 1.6 µM.

What about the “selectivity index (SI) = IC50/EC50” value (HepG2 human cell line) of the same molecule?
Its value is 1.3.

For `CN(C)c1ccc(/C=C2\SC(=S)N(N)C2=O)cc1` [IDR-0605186], which EC50 [1, 3] is on record?
Its EC50 is 15 ± 5.9 µM.

And the IC50 at 72 h [2]?
Its IC50 at 72 h is over 50 µM.

And the “selectivity index (SI) = IC50/EC50” value (HepG2 human cell line)?
The value was over 3.3.

For `CCOc1cc(C=C(C#N)c2nc(-c3ccc(OC)cc3)cs2)ccc1O` [IDR-0605187], which EC50 [1, 3] is on record?
The EC50 was 5.9 ± 3.4 µM.

And the EC50 [1, 4]?
The EC50 was 3.1 µM.

And the IC50 at 72 h [2]?
Its IC50 at 72 h is 51 ± 31 µM.

What about the “selectivity index (SI) = IC50/EC50” value (HepG2 human cell line) of the same molecule?
Its value is 8.6.

For `COc1ccc(Br)cc1/C=C(\C#N)c1nc2ccc(C)cc2[nH]1` [IDR-0605188], which EC50 [1, 3] is on record?
The EC50 was 4.7 ± 3.8 µM.

And the IC50 at 72 h [2]?
The IC50 at 72 h was 17 ± 13 µM.

And the “selectivity index (SI) = IC50/EC50” value (HepG2 human cell line)?
Its value is 3.6.

For `CCCCCCCCCCCCCC(=O)O[C@@H]1[C@@H](C)[C@@]2(O)[C@@H](C=C(CO)C[C@]3(O)C(=O)C(C)=C[C@@H]23)[C@@H]2C(C)(C)[C@]12OC(C)=O` [PMA, phorbol myristate acetate, reference compound], which “NF-κB nuclear translocation in response to different inducers vs negative control (1% DMSO)” value ([1]; 10 ng/mL TNF-α) is on record?
Its value is “no difference”.

For `CNc1ccc2oc(C[C@H]3O[C@@]4(CC[C@H]3C)O[C@H]([C@H](C)C(=O)c3ccc[nH]3)[C@H](C)C[C@H]4C)nc2c1C(=O)O` [calcimycin, reference compound], which “NF-κB nuclear translocation in response to different inducers vs negative control (1% DMSO)” value ([1]; 10 ng/mL TNF-α) is on record?
Its value is “no difference”.

With `CC(=O)O[C@@]12C[C@@H](C)[C@@]3(O)[C@@H](C=C(CO)C[C@]4(O)C(=O)C(C)=C[C@@H]34)[C@@H]1C2(C)C` [prostratin, reference compound] as the molecule, how does the “NF-κB nuclear translocation in response to different inducers vs negative control (1% DMSO)” value ([1]; 10 ng/mL TNF-α) read?
The value was “no difference”.

Which “NF-κB nuclear translocation in response to different inducers vs negative control (1% DMSO)” value ([1]; 10 ng/mL TNF-α) does the source give for TNF-α here?
The value was “most robust NF-κB nuclear translocation”.

What about the “time of maximum NF-κB activation post stimulation” value ([1]; HUVECs, 10 ng/mL TNF-α, fixed at 15, 30, 45 and 60 min) of the same molecule?
The value was 30 min.

And the “EC50 of NF-κB nuclear translocation” value ([1]; HUVECs, 10-point 3-fold dilutions from 100 ng/mL, 30 min, across three independent experiments)?
The value was 0.3 to 0.6 ng/mL.

For “lipopolysaccharide [LPS, reference compound]”, which “NF-κB nuclear translocation in response to different inducers vs negative control (1% DMSO)” value ([1]; 10 ng/mL TNF-α) is on record?
The value was “no difference”.
